Where two headings read alike, the source gives them in different places.
Columns and labels:
Type in all cases: cell-based
H1975 cells = assay: Cell proliferation and growth inhibition assay (CCK-8) in H1975; conditions: Homo sapiens, NCI-H1975, 72 h, treated with test compounds for 72 hrs, CCK-8 viability, read-out: EGFR IC50 in H1975
Summary of the method: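 Cells seeded at 30,000 (MV-4-11, IMDM) or 3,000 (H1975, RPMI 1640) per well, left 24 h, then compound-treated 72 h at 37 °C, 5% CO2, 10% FBS. Viability read by CCK-8 (1–4 h) at OD450. IC50 from sigmoidal dose-response nonlinear regression.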

KM12-luc cells = assay: Cell proliferation and growth inhibition assay (CCK-8) in KM12-luc; conditions: KM12-luc cells, treated with test compounds for 72 hrs, CCK-8 viability, read-out: NTRK IC50 in KM12-luc
Summary of the method: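 IC50 values were fitted by sigmoidal dose-response non-linear regression of CCK-8 OD450 absorbance after 1-4 hrs with reagent. Culture media were IMDM for MV-4-11, RPMI 1640 for H1975 and DMEM for KM12-luc, each with 10% FBS at 37 °C, 5% CO2.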

MV-4-11 (AML) cells = assay: Cell proliferation and growth inhibition assay (CCK-8) in MV-4-11; conditions: Homo sapiens, MV4-11; MV-4-11 cells, treated with test compounds for 72 hrs, CCK-8 viability
Protocol: MV-4-11 and H1975 cells were obtained from the American Type Culture Collection and KM12-luc cells were obtained from JCRB Cell Bank. All cell lines were maintained at 37° C. with 5% C02, in media supplemented with 10% fetal bovine serum and penicillin (100 units/mL) and streptomycin (100 μg/mL). MV-4-11 cells were maintained in Iscove's Modified Dubecco's Medium, H1975 cells were cultured with RPMI 1640 media, and KM12-luc cells were maintained in Dulbecco's Modification of Eagle's Medium. CCK-8 reagent was obtained from Yeasen.
Cell proliferation was assessed by CCK-8 assay (Yeasen) per the manufacturer's instructions. The MV-4-11 (AML), H1975, and KM12-luc cells were seeded at 30,000, 3,000 and 2,500 cells per well onto 96-well plates, and after a 24 h incubation, the cells were treated with test compounds for 72 hrs. Cell viability was assayed by incubating the cells with CCK-8 reagent for 1-4 hrs. Absorbance was measured at OD450 using the Beckman DTX880. The data was calculated using GraphPad Prism version 6.01. The IC50 values were fitted using a non-linear regression model with a sigmoidal dose response.

Structure (SMILES) | IC50 (H1975 cells) | IC50 (MV-4-11 (AML) cells) | IC50 (KM12-luc cells; KM12-Luc, 72 h) | IC50 (KM12-luc cells)
COc1cccc2c(-c3nc(Nc4ccc(N5CC[C@H](N(C)C)C5)c(N)c4)ncc3C(F)(F)F)c[nH]c12 [Compound S-383, (S)-4-(3-(dimethylamino)pyrrolidin-1-yl)-N^1-(4-(7-methoxy-1-1H-indol-3-yl)-5-(trifluoromethyl)pyrimidin-2-yl)benzene-1,3-diamine] | 118 nM | 4.6 nM | 9.5 nM | 
COc1cccc2c(-c3nc(Nc4ccc(N5CC[C@@H](N(C)C)C5)c(NC(C)=O)c4)ncc3C(F)(F)F)c[nH]c12 [Compound R-382, (R)—N-(2-(3-(dimethylamino)pyrrolidin-1-yl)-5-((4-(7-methoxy-1H-indol-3-yl)-5-(trifluoromethyl)pyrimidin-2-yl)amino)phenyl)acetamide] | 128 nM | 6.3 nM | 9.2 nM | 
CC(=O)Nc1cc(Nc2ncc(C(F)(F)F)c(-c3c[nH]c4c(F)cccc34)n2)ccc1N1CC[C@@H](N(C)C)C1 [Compound R-344, (R)—N-(2-(3-(dimethylamino)pyrrolidin-1-yl)-5-((4-(7-fluoro-1H-indol-3-yl)-5-(tri-fluoromethyl)pyrimidin-2-yl)amino)phenyl)acetamide] | 205 nM | 5.4 nM | 7.4 nM | 
COc1cccc2c(-c3nc(Nc4ccc(N(C)CCN(C)C)c(N)c4)ncc3C(F)(F)F)c[nH]c12 [Compound 375, N^1-(2-(dimethylamino)ethyl)-N^4-(4-(7-methoxy-1H-indol-3-yl)-5-(trifluoromethyl)pyrimidin-2-yl)-N^1-methylbenzene-1,2,4-triamine] | 152 nM | 4.2 nM | 4.1 nM | 
Cc1cccc2c(-c3nc(Nc4ccc(N(C)CCN(C)C)c(N)c4)ncc3C(F)(F)F)c[nH]c12 [Compound 359, N^1-(2-(dimethylamino)ethyl)-N^1-methyl-N^4-(4-(7-methyl-1H-indol-3-yl)-5-(trifluoromethyl)pyrimidin-2-yl)benzene-1,2,4-triamine] | 120 nM | 5.9 nM | 5.5 nM | 
COc1cccc2c(-c3nc(Nc4ccc(N5CC[C@H](N(C)C)C5)c(NC(C)=O)c4)ncc3C(F)(F)F)c[nH]c12 [Compound S-382a, (S)—N-(2-(3-(dimethylamino)pyrrolidin-1-yl)-5-((4-(7-methoxy-1H-indol-3-yl)-5-(trifluoromethyl)pyrimidin-2-yl)amino)phenyl)acetamide] | 134 nM | 3.7 nM | 5.3 nM | 
CC(=O)Nc1cc(Nc2ncc(C(F)(F)F)c(-c3c[nH]c4c(C)cccc34)n2)ccc1N(C)CCN(C)C [Compound 358, N-(2-((2-(dimethylamino)ethyl)(methyl)amino)-5-((4-(7-methyl-1H-indol-3-yl)-5-(trifluoromethyl)pyrimidin-2-yl)amino)phenyl)acetamide] | 47 nM | 4.4 nM | 3.1 nM | 
CCN(CCN(C)C)c1ccc(Nc2ncc(C(F)(F)F)c(-c3c[nH]c4c(F)cccc34)n2)cc1N [Compound 337, N^1-(2-(dimethylamino)ethyl)-N^1-ethyl-N^4-(4-(7-fluoro-1H-indol-3-yl)-5-(trifluoromethyl)pyrimidin-2-yl)benzene-1,2,4-triamine] | 366 nM | 11.1 nM | 10.4 nM | 
CC(=O)Nc1cc(Nc2ncc(Cl)c(-c3cn(C)c4ccccc34)n2)ccc1N1CCC(N(C)C)C1 (stereo not drawn) [Compound 402, N-(5-((5-chloro-4-(1-methyl-1H-indol-3-yl)pyrimidin-2-yl)amino)-2-(3-(dimethylamino)pyrrolidin-1-yl)phenyl)acetamide] | 1210 nM | 64.2 nM | 27.4 nM | 

More lines, in order of falling IC50 (H1975 cells), values ahead:

IC50 (H1975 cells) | IC50 (MV-4-11 (AML) cells) | Structure (SMILES) | IC50 (KM12-luc cells; KM12-Luc, 72 h) | IC50 (KM12-luc cells)
288 nM | 5.2 nM | Cc1cccc2c(-c3nc(Nc4ccc(N(C)CCN(C)C)c(N)c4)ncc3Cl)c[nH]c12 [Compound 422, N^4-(5-chloro-4-(7-methyl-1H-indol-3-yl)pyrimidin-2-yl)-N^1-(2-(dimethylamino)ethyl)-N^1-methylbenzene-1,2,4-triamine] | 5.2 nM | 
198 nM | 5.6 nM | CC(=O)Nc1cc(Nc2ncc(C(F)(F)F)c(-c3c[nH]c4c(F)cccc34)n2)ccc1N1CC[C@H](N(C)C)C1 [Compound S-344, (S)—N-(2-(3-(dimethylamino)pyrrolidin-1-yl)-5-((4-(7-fluoro-1H-indol-3-yl)-5-(tri-fluoromethyl)pyrimidin-2-yl)amino)phenyl)acetamide] | 6.3 nM | 
189 nM | 4.2 nM | CC(=O)Nc1cc(Nc2ncc(Cl)c(-c3cn(C)c4c(C)cccc34)n2)ccc1N1CC[C@H](N(C)C)C1 [Compound S-426, (S)—N-(5-((5-chloro-4-(1,7-dimethyl-1H-indol-3-yl)pyrimidin-2-yl)amino)-2-(3-(dimethylamino)pyrrolidin-1-yl)phenyl)acetamide] |  | 2.7 nM
92.1 nM | 3.4 nM | CC(=O)Nc1cc(Nc2ncc(C(F)(F)F)c(-c3c[nH]c4c(F)cccc34)n2)ccc1N(C)CCN(C)C [Compound 334, N-(2-((2-(dimethylamino)ethyl)(methyl)amino)-5-((4-(7-fluoro-1H-indol-3-yl)-5-(trifluoromethyl)pyrimidin-2-yl)amino)phenyl)acetamide] | 3 nM | 
68.3 nM | 4.4 nM | CC(=O)Nc1cc(Nc2ncc(C(F)(F)F)c(-c3c[nH]c4c(C)cccc34)n2)ccc1OCCN(C)C [Compound 365, N-(2-(2-(dimethylamino)ethoxy)-5-((4-(7-methy-1H-indol-3-yl)-5-(trifluoromethyl)pyrimidin-2-yl)amino)phenyl)acetamide] | 4.3 nM | 

— patent US20250136576A1, “Heterocyclic Compounds and Uses Thereof” (ACEA Therapeutics, Inc., priority 2021, published 2025)
